Source: patent US4562196A, “2,4-Diaminopyridine as a pharmacologic agent” (Nelson Research & Development, priority 1984, dated 1985)

Experiments:
[1] = tested on: neuromuscular transmission blocked with pancuronium bromide (rat phrenic nerve-hemidiaphragm); assay: Rat hemidiaphragm: antagonism of pancuronium blockade in vitro; parameters: species or system male Wistar rats; details: for EC50: 90% block by pancuronium bromide about 8×10^-6 M, 37° C., cumulative addition, read-out: EC50 (concentration that produces a 50% antagonism)
Method: Left hemidiaphragms with their phrenic nerves were removed from male Wistar rats weighing 280-320 g. and were mounted in an organ bath, containing Krebs solution, maintained at 37° C. and gassed with oxygen containing 5% CO2. The nerve was stimulated at a frequency of 0.1 Hz via electrodes with rectangular pulses of 0.3 ms duration and of a strength greater than that required to reproduce maximal twitch.

[2] = tested on: neuromuscular block by pancuronium bromide (sciatic nerve-anterior tibialis); assay: Rat sciatic nerve-anterior tibialis preparation: antagonism of neuromuscular block in vivo; parameters: species or system Rats; details: for ED50: Rattus norvegicus, iv, 10 min, read-out: ED50 (dose of drug producing a 50% antagonism), constant pancuronium infusion, 90-95% depression of twitch tension, cumulative dosing, 10 min interval
Method: This preparation is used to test the antagonistic action of aminopyridines against neuromuscular blocking agents in vivo. (Miller, Denissen, van der Pol, Agoston, Booy and Crul, J. Pharm. Pharmacol. 30, 699 (1978)).
Rats were administered a constant infusion of pancuronium bromide and when a constant block was achieved, one of the aminopyridines was administered. The ED50 's (dose of drug producing a 50% antagonism) were determined.
Rats (280-320 g) were anaesthetized with pentobarbital. Both jugular veins were cannulated for administration of drugs. A caratoid artery was cannulated for measurement and recording of arterial blood pressure. The trachea was intubated and ventilation controlled by means of a Braun air pump. The tendon of the left tibialist was freed, sectioned and connected to a force displacement transducer. The sciatic nerve was stimulated by supramaximal 0.1 Hz stimuli of 0.2 msec duration through a bipolar electrode. Twitch tension was recorded on a polygraph. The temperature of the rat was maintained at 37° C. with heating lamps. Pancuronium bromide was administered intravenously by continuous infusion until 90-95% depression of twitch tension was obtained. This infusion speed was maintained during the whole experiment. When the block was steady for at least 15 min one of the drugs was given cumulatively with 10 min interval.

[3] = tested on: mice; assay: Acute toxicity (LD50), intraperitoneal, mice; assay type: in vivo; details: from LD50 values
Method: Moreover, the LD50 values for intraperotoneal 4-AP and 3,4-DAP in mice are 10 mg./kg. and 20 mg./kg., respectively (Vohra, et al. J. Med. Chem 8, 296-304 (1965)). The LD50 dosage corresponds to a lethal dose in 50% of the animals treated. Thus, although not as toxic as 4-AP, 3,4-DAP suffers from the similar disadvantage of high toxicity at dosage levels near those that would be used in therapy.

[4] = tested on: mice; details: i.p., Vohra et al., J. Med. Chem. 8, 296 (1965); cited from earlier work
[5] = tested on: central nervous system; details: in vivo; cited from earlier work
[6] = in vitro; vs 4-AP; cited from earlier work
[7] = 4-AP compared with 3,4-DAP; cited from earlier work
[8] = tested on: guinea-pig ileum; assay: Ileum of the guinea pig: activity on smooth muscle; details: for pD2 (negative logarithm of the dose required to produce 50% of the maximum response): compared to maximal contraction by 2×10^-7 M carbochol, 37° C.
Method: This preparation tests the pharmacological activity on smooth muscle (Moritoki, Takei, Makomoto and Ishida, Arch. Int. Pharmacodyn. Ther. 232, 28 (1978).
The […] of the ileum was measured. This is compared to the maximal contraction caused by carbochol. From dose response curves the following pD2 values were determined (the pD2 value is the negative logarithm of the dose required to produce 50% of the maximum response).
Segments of guinea-pig ileum of 3 to 4 cm. length from 10 cm above the ileocaecal junction were used. The oral end of each segment was fixed to a hook and the distal end was connected to an isotonic transducer with a 1 g counterweight. The preparation was then immersed to an organ bath (25 ml) at 37° C. containing Krebs solution and bubbled with oxygen containing 5% CO2. After an equilibration time of about 1 hour, 2×10^-7 M carbochol was added to the bath for maximal contraction. After wash out (2×) the drugs were added cumulatively to the bath.

[9] = tested on: rat heart; assay: Isolated heart of the rat: positive inotropic action; parameters: species or system male Wistar rats; details: for changes in frequency or E.C.G.: same perfusion as L.V.P.
Method: This preparation evaluates the positive inotropic action of a drug (Koomen, van Gilst, Zimmerman and Noordwijk, Arch. Int. Pharmacodyn. Ther. 255, 212 (1982)).
Solutions of the aminopyridines were added to the perfusion solution of the rat heart. The left ventricular pressure (L.V.P.) was recorded in order to evalute the positive inotropic action. Frequency and E.C.G. were also monitored. Male Wistar rats (270-300 g) were anaesthetized with diethyl ether. After heparinization the hearts were quickly removed. Subsequently the heart was perfused according to the method of Langendorff. The perfusion fluid contained: NaCl 128 mM; KCl 4.7 mM; CaCl2 1.35 mM; MgCl2 1.05 mM; NaHPO4 0.42 mM; NaHCO3 20.2 mM; glucose 11.1 mM. The pH of the perfusion fluid after aeration with 95% O2 --5% CO2 was 7.35±0.05 (37° C.). L.V.P. was measured by means of a catheter inserted in the left ventricule and connected to a pressure transducer. A biopolar E.C.G. was obtained by means of two silver electrodes: one attached to the metal inflow cannula and the other to the ventricular apex. Coronary flow (volume of perfusion fluid per time unit) was measured by a microprocessor, which controlled the perfusion pressure by adjusting the peristaltic perfusion pump.

[10] = tested on: ketamine-xylazine narcosis; assay: Antagonism of ketamine-xylazine narcosis (central effects); assay type: in vivo, Rats
Method: This is a method of testing the central effects of the aminopyridines.
Rats were anaesthetized with xylazine (0.05 ml of a 2% soln, s.c.) and ketamine (0.1 ml of a soln, i.p.). After 10 min. the aminopyridines (1 mg./kg) were administered, i.v. The time required for "full recovery" (i.e. turning over and crawling) was measured. Groups of 10 rats were used for each treatment.

[11] = tested on: potassium channel in axonal membranes; details: cited from earlier work
[12] = tested on: neuromuscular blocking drugs; details: with neostigmine and pyridostigmine; cited from earlier work

Compound	EC50 [1]	ED50 [2]	toxicity relative to 2,4-DAP [3]	LD50 [4]	convulsions, central adverse effects [5]	action in vivo [7]	pD2 (negative logarithm of the dose required to produce 50% of the maximum response) [8]	changes in frequency or E.C.G. [9]	further results
Nc1ccncc1N [3,4-Diaminopyridine, 3,4-diaminopyridine]	10 µM	0.25 mg/kg	an order of magnitude more toxic than the compound of the present invention	20 mg/kg	tendency to cause convulsions	almost the same	–	–	peripheral and central action relative to 4-AP [6]: stronger peripheral action and less central action than 4-AP in vitro
Nc1ccnc(N)c1 [2,4-Diaminopyridine, 2,4-diaminopyridine]	15 µM	0.14 mg/kg	–	–	has not been shown to cause convulsions	–	4.52	No changes in frequency or E.C.G. were noted	potency relative to 3,4-diaminopyridine ([1]; vs 3,4-diaminopyridine): about the same potency as 3,4-diaminopyridine; potency relative to 4-aminopyridine ([1]; vs 4-aminopyridine): about 3.5 times more potent; potency relative to 4-aminopyridine ([8]; vs 4-aminopyridine): slightly more potent than 4-aminopyridine; increase of left ventricular pressure (L.V.P.) ([9]; 5×10^-6 mol/l to 10^-4 mol/l): up to 50%; effectiveness relative to 4-aminopyridine ([9]; vs 4-aminopyridine): significantly more effective than 4-aminopyridine; potency relative to 3,4-diaminopyridine ([2]; vs 3,4-diaminopyridine): about twice as potent as 3,4-diaminopyridine; potency relative to 4-aminopyridine ([2]; vs 4-aminopyridine): about 3 times more potent; recovery compared with saline controls ([10]; 1 mg./kg, vs saline controls): did not differ significantly from controls receiving saline; central actions relative to 3,4-diaminopyridine ([10]; vs 3,4-diaminopyridine): somewhat weaker than those of 3,4-diaminopyridine; central actions relative to 4-aminopyridine ([10]; vs 4-aminopyridine): much weaker than those of 4-aminopyridine
Nc1ccncc1 [4-Aminopyridine, 4-aminopyridine]	55 µM	0.45 mg/kg	an order of magnitude more toxic than the compound of the present invention	10 mg/kg	hypertension and convulsions at dosage levels only slightly exceeding the clinical dosage	almost the same	4.30	No changes in frequency or E.C.G. were noted	increase of left ventricular pressure (L.V.P.) ([9]; 2×10^-5 to 1×10^-4 mol/l): up to 40%; potassium channel blocking action [11]: potassium channel blocking action in axonal membranes; potentiation of anticholinesterase drugs [12]: potentiates anticholinesterase drugs
